According to patent US5100895A, “Heterocyclic compounds and their preparation and use” (Novo Nordisk A/S, priority 1989, dated 1992):

These molecules were tested on benzodiazepine receptors (assay: in vivo displacement of 3H-flunitrazepam specific binding to benzodiazepine receptors in a living brain). Settings: dose which causes specific binding of 3H-flunitrazepam to benzodiazepine receptors in a living brain to be reduced to 50% of the control value.
From the text: The pharmaceutical properties of the compounds of the invention can be illustrated by determining their capability for displacing radioactive labelled flunitrazepam from benzodiazepine receptors.
The displacement activity of the compounds of the invention may be found by determining the ED50 value. The ED50 value represents the dose (mg/kg) of a test substance which causes the specific binding of ^3 H-flunitrazepam to benzodiazepine receptors in a living brain to be reduced to 50% of the control value.
Such an in vivo test is carried out as described in U.S. Pat. No. 4,774,245.

Row | SMILES | ED50 [mg/kg]
1 | c1ccc2c(c1)C1=NCCN1c1c(-c3noc(C4CC4)n3)ncn1-2 [Compound 1, 5-(5-cyclopropyl-1,2,4-oxadiazol-3-yl)-2,3-dihydrodiimidazol[1,5-a:1',2'-c]quinazoline] | 0.47
2 | Clc1cccc2c1C1=NCCN1c1c(-c3noc(C4CC4)n3)ncn1-2 [Compound 6, 12-Chloro-5-(5-cyclopropyl-1,2,4-oxadiazol-3-yl)-2,3-dihydrodiimidazo[1,5-a:1',2'-c]quinazoline] | 0.23
3 | FC(F)(F)c1cccc2c1C1=NCCN1c1c(-c3noc(C4CC4)n3)ncn1-2 [Compound 12, 5-(5-Cyclopropyl-1,2,4-oxadiazol-3-yl)-2,3-dihydro-12-trifluoromethyldiimidazo[1,5-a:1',2'-c]quinazoline] | 0.08
4 | Brc1cccc2c1C1=NCCN1c1c(-c3nc(C4CC4)no3)ncn1-2 [Compound 8, 12-Bromo-5-(3-cyclopropyl-1,2,4-oxadiazol-5-yl)-2,3-dihydrodiimidazo[1,5-a:1',2'-c]quinazoline] | 1.7
5 | FC(F)(F)c1cccc2c1c1nccn1c1c(-c3noc(C4CC4)n3)ncn21 [Compound 28, 5-(5-Cyclopropyl-1,2,4-oxadiazol-3-yl)-12-trifluoromethyldiimidazo[1,5-a:1',2'-c]quinazoline] | 0.12
6 | FC(F)(F)c1cccc2c1C1=NCCN1c1c(-c3nc(C4CC4)no3)ncn1-2 [Compound 19, 5-(3-Cyclopropyl-1,2,4-oxadiazol-5-yl)-2,3-dihydro-12-trifluoromethyldiimidazo[1,5-a:1',2'-c]quinazoline] | 0.08
7 | Fc1ccc2c(c1)C1=NCCN1c1c(-c3noc(C4CC4)n3)ncn1-2 [Compound 21, 5-(5-Cyclopropyl-1,2,4-oxadiazol-3-yl)-11-fluoro-2,3-dihydrodiimidazo[1,5-a:1',2'-c]quinazoline] | 0.26
8 | Brc1cccc2c1C1=NCCN1c1c(-c3noc(C4CC4)n3)ncn1-2 [Compound 7, 12-Bromo-5-(5-cyclopropyl-1,2,4-oxadiazol-3-yl)-2,3-dihydroiimidazo[1,5-a:1',2'-c]quinazoline] | 0.92
